# In ChEMBL document CHEMBL1135315, “Spirocyclic NK(1) antagonists I: [4.5] and [5.5]-spiroketals” (Bioorg Med Chem Lett, 2002):
# Molecular target: T1, Substance-P receptor (Homo sapiens, UniProt P25103)
# Assay: Displacement of [125I]-labeled substance P from human Tachykinin receptor 1 expressed in CHO cells
# Format: cell-based
# Settings: not given
# T1 sequence (P25103 whole entry): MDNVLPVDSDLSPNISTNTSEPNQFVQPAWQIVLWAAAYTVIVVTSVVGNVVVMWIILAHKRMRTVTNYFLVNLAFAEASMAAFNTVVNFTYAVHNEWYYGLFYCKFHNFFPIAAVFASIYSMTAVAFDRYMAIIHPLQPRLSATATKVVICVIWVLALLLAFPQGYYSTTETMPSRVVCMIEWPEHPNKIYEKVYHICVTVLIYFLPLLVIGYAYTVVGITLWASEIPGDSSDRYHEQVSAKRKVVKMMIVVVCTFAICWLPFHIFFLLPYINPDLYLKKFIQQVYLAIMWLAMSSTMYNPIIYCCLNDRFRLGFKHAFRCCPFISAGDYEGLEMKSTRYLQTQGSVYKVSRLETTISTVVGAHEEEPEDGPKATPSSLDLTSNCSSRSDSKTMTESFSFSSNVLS
row,SMILES,IC50
1,O=c1[nH]nc(CN2CCOC3(CCC(c4ccccc4)CO3)C2c2ccccc2)[nH]1 (stereo not drawn),19 nM
2,Fc1ccc([C@@H]2NCCOC23COC[C@H](c2ccccc2C(F)(F)F)C3)cc1 (stereo partly drawn),24 nM
3,COc1ccccc1[C@H]1COCC2(C1)OCCN[C@H]2c1ccc(F)cc1 (stereo partly drawn),13 nM
4,Fc1ccc([C@@H]2NCCOC23COC[C@H](c2ccccc2)C3)cc1 (stereo partly drawn),99 nM
5,CN(C)Cc1nn[nH]c1CN1CCOC2(CCC(c3ccccc3OC(F)(F)F)CO2)C1c1ccc(F)cc1 (stereo not drawn),1.4 nM
6,COc1ccccc1[C@H]1COCC2(C1)OCCN(Cc1n[nH]c(O)n1)[C@H]2c1ccc(F)cc1 (stereo partly drawn),0.56 nM
7,COc1ccc(F)cc1[C@H]1COCC2(C1)OCCN[C@H]2c1ccc(F)cc1 (stereo partly drawn),10 nM
8,CN(C)Cc1nn[nH]c1CN1CCOC2(CCC(c3ccccc3C(F)(F)F)CO2)C1c1ccc(F)cc1 (stereo not drawn),1.1 nM
9,COc1ccc(C(C)C)cc1[C@H]1COCC2(C1)OCCN[C@H]2c1ccc(F)cc1 (stereo partly drawn),2.8 nM
10,COc1ccc(OC)c([C@H]2COCC3(C2)OCCN[C@H]3c2ccc(F)cc2)c1 (stereo partly drawn),16 nM
11,COc1cccc([C@H]2COCC3(C2)OCCN[C@H]3c2ccc(F)cc2)c1 (stereo partly drawn),183 nM
12,Fc1ccc([C@@H]2NCCOC23COC[C@H](c2cccc(C(F)(F)F)c2)C3)cc1 (stereo partly drawn),30 nM
13,c1ccc(C2CCC3(OCCNC3c3ccccc3)OC2)cc1 (stereo not drawn),170 nM
14,COc1ccc(-n2nnnc2C(F)(F)F)cc1[C@H]1COCC2(C1)OCCN(Cc1n[nH]c(O)n1)[C@H]2c1ccc(F)cc1 (stereo partly drawn),0.1 nM
15,Fc1ccc(C2NCCOC23CCC(c2cccc(C(F)(F)F)c2)CO3)cc1 (stereo not drawn),513 nM

# System: Gerbillinae
# Assay: CNS penetration was assessed by compounds ability in gerbils to block the foot-tapping induced by central infusion of the NK1-selective agonist GR-73632 when administered intravenously
# Format: functional
# Settings: iv, read-out: ID50 (the source's name)
row,SMILES,ED50
1,CN(C)Cc1nn[nH]c1CN1CCOC2(CCC(c3ccccc3OC(F)(F)F)CO2)C1c1ccc(F)cc1 (stereo not drawn),0.6 mg/kg
2,CN(C)Cc1nn[nH]c1CN1CCOC2(CCC(c3ccccc3C(F)(F)F)CO2)C1c1ccc(F)cc1 (stereo not drawn),1.1 mg/kg

# Molecular target: T1, Substance-P receptor
# Assay: Percent displacement of [125I]-labeled substance P from the cloned human Tachykinin receptor 1 expressed in CHO cells at 1 uM
# Format: cell-based
# Settings: not given
row,SMILES,Affinity
1,Fc1ccc([C@@H]2NCCO[C@]23CC[C@@H](c2ccccc2C(F)(F)F)CO3)cc1,47%
2,Fc1ccc([C@@H]2NCCO[C@@]23CC[C@H](c2ccccc2C(F)(F)F)CO3)cc1,44%

# Molecular target: T1, Substance-P receptor
# Assay: Displacement of [125I]-substance P from human Tachykinin receptor 1
# Settings: not given
row,SMILES,IC50
1,Fc1ccc([C@@H]2NCCO[C@]23CC[C@H](c2ccccc2C(F)(F)F)CO3)cc1,400 nM
2,Fc1ccc([C@@H]2NCCO[C@@]23CC[C@@H](c2ccccc2C(F)(F)F)CO3)cc1,28 nM

# Molecular target: T1, Substance-P receptor
# Assay: Percent displacement of [125I]-labeled substance P from the cloned human Tachykinin receptor 1 expressed in CHO cells at a concentration of 1 uM of the compound
# Format: cell-based
# Settings: not given
row,SMILES,Affinity
1,Fc1ccc(C2NCCOC23CCC(c2ccc(C(F)(F)F)cc2)CO3)cc1 (stereo not drawn),55%
2,COc1ccc([C@H]2COCC3(C2)OCCN[C@H]3c2ccc(F)cc2)cc1 (stereo partly drawn),27%
